Experimental findings from ChEMBL document CHEMBL2439953, “Dimeric argininamide-type neuropeptide Y receptor antagonists: chiral discrimination between Y1 and Y4 receptors” (Bioorg Med Chem, 2013) are described below.

Assay [1] concerns the target T1, Neuropeptide Y receptor type 4 (Homo sapiens, UniProt P50391). Nature of the assay: Antagonist activity at human neuropeptide Y receptor type 4 expressed in CHO cells co-expressing Gqi5-mtAEQ assessed as inhibition of hPP-induced calcium mobilization by Aequorin assay. It is filed as functional, cell-based. For orientation: Calcium assays in cells follow changes in intracellular calcium, usually with a dye or a luminescent sensor.

Assay [2] has as its target T2, Neuropeptide Y receptor type 1 (Homo sapiens) (UniProt P25929).
T2 sequence (whole entry): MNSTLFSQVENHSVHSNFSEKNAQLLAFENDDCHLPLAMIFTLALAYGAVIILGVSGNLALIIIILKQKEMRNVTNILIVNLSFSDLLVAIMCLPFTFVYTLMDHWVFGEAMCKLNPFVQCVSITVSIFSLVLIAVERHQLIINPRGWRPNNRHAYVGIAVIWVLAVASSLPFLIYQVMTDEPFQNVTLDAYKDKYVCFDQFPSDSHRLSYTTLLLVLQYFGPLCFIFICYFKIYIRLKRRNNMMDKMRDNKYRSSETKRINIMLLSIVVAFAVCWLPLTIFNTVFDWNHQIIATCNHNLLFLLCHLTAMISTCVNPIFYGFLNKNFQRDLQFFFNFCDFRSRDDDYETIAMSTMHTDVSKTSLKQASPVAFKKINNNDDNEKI
Put plainly: Antagonist activity at neuropeptide Y receptor type 1 in HEL assessed as inhibition of pNPY-induced calcium mobilization by Fura-2 calcium assay. It is filed as functional.

The target of assay [3] is T3, Neuropeptide Y receptor type 1 (Homo sapiens, UniProt P25929).
T3 sequence (P25929 whole entry): T2 sequence (whole entry)
Put plainly: Displacement of [3H]UR-MK114 from human neuropeptide Y receptor type 1 expressed in human MCF7 cells. In kind it is cell-based. In general terms: Loss of bound radioactivity is the signal in a displacement assay; it reports binding, not function.

The target in assay [4] is T4, Neuropeptide Y receptor type 5 (Homo sapiens, UniProt Q15761).
T4 sequence (Q15761 whole entry): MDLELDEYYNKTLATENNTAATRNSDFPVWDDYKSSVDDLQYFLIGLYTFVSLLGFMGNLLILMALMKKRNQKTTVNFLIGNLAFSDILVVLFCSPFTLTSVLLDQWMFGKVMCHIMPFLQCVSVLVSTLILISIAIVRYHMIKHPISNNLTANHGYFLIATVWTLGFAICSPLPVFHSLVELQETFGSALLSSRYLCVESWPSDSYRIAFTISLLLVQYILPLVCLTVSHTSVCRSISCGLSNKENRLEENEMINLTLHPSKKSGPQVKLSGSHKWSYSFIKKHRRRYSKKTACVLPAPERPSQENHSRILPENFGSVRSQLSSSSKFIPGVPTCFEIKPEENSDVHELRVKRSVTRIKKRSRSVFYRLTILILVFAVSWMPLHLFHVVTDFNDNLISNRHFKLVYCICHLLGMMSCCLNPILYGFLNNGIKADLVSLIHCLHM
Put plainly: Binding affinity to human neuropeptide Y receptor type 5 receptor expressed in HEC-1B cells using Cy5-pNPY by flow cytometric analysis. In kind it is cell-based. On the technique in general: Flow cytometry measures light scatter and fluorescence of single cells or particles in a stream.

In assay [5] the target is T1, Neuropeptide Y receptor type 4. Nature of the assay: Binding affinity to human neuropeptide Y receptor type 4 receptor expressed in CHO cells using Cy5-[K4]-hPP by flow cytometric analysis. It is filed as cell-based.
For assay [6], the target named is T3, Neuropeptide Y receptor type 1. Nature of the assay: Displacement of [3H]UR-MK114 from human neuropeptide Y receptor type 1 expressed in human SK-N-MC cells. In kind it is cell-based.
In assay [7] the target is T5, Neuropeptide Y receptor type 2 (Homo sapiens, UniProt P49146).
T5 sequence (P49146 whole entry): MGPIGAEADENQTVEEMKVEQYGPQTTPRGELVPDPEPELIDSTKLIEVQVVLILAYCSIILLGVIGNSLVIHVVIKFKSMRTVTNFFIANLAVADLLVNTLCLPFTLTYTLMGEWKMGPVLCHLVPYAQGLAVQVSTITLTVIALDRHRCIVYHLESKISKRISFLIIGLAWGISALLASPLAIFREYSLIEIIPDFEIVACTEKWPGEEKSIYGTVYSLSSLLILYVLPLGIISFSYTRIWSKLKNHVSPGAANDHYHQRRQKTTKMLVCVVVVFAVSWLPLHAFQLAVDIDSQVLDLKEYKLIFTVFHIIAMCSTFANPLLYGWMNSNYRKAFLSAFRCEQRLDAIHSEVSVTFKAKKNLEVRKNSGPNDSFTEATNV
Put plainly: Binding affinity to human neuropeptide Y receptor type 2 receptor expressed in CHO cells using Cy5-pNPY by flow cytometric analysis. In kind it is cell-based.

T1 sequence (P50391 whole entry): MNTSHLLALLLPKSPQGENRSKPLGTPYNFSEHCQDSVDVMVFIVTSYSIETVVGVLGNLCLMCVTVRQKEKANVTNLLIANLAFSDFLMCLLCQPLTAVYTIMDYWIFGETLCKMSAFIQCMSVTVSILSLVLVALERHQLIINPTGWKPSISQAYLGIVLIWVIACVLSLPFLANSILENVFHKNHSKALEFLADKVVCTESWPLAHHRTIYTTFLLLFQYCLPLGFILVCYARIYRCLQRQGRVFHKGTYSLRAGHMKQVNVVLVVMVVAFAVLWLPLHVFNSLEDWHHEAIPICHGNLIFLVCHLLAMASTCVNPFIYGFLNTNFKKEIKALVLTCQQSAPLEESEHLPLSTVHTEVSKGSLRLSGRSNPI

A word on the Kb: it is the affinity of an antagonist, worked out from how it opposes an agonist. In the case of `N/C(=N/C(=O)CCCCCCC(=O)/N=C(\N)NCCC[C@@H](NC(=O)C(c1ccccc1)c1ccccc1)C(=O)NCc1ccc(O)cc1)NCCC[C@@H](NC(=O)C(c1ccccc1)c1ccccc1)C(=O)NCc1ccc(O)cc1`, the Kb came to 98 nM in assay [1] and 3.5 nM in assay [2].

Usually Ki stands for a dissociation constant, usually derived from enzyme kinetics or from competition with a known ligand. High values mean a looser hold on the target, low ones a stronger hold on the target. As for `NCCN(CCNC(=O)CCC(=O)NCCOCCOCCNC(=O)/N=C(/N)NCCC[C@@H](NC(=O)C(c1ccccc1)c1ccccc1)C(=O)NCc1ccc(CNC(N)=O)cc1)CCNC(=O)CCC(=O)NCCOCCOCCNC(=O)/N=C(/N)NCCC[C@@H](NC(=O)C(c1ccccc1)c1ccccc1)C(=O)NCc1ccc(CNC(N)=O)cc1`, the inhibition constant Ki in assay [3] was 210 nM; in assay [4], above 5000 nM; in assay [5], 290 nM; in assay [6], 230 nM; in assay [7], 4000 nM. Besides, the Kb in assay [1] was 96 nM; in assay [2], 4.2 nM.

Consider `N=C(N)NCCC[C@@H](NC(=O)C(c1ccccc1)c1ccccc1)C(=O)NCc1ccc(CNC(=O)NCCCCNC(=O)CCCC(=O)NCCN(CCN)CCNC(=O)CCCC(=O)NCCCCNC(=O)NCc2ccc(CNC(=O)[C@@H](CCCNC(=N)N)NC(=O)C(c3ccccc3)c3ccccc3)cc2)cc1`, for which the Ki in assay [3] was 430 nM; in assay [4], above 5000 nM; in assay [5] it was 3500 nM; in assay [6], 330 nM; in assay [7], above 5000 nM. Further, the Kb in assay [1] is above 5000 nM; in assay [2], 120 nM.

As for `NCCN(CCNC(=O)CCC(=O)NCCOCCOCCNC(=O)/N=C(/N)NCCC[C@H](NC(=O)C(c1ccccc1)c1ccccc1)C(=O)NCc1ccc(CNC(N)=O)cc1)CCNC(=O)CCC(=O)NCCOCCOCCNC(=O)/N=C(/N)NCCC[C@H](NC(=O)C(c1ccccc1)c1ccccc1)C(=O)NCc1ccc(CNC(N)=O)cc1`, the Kb is 140 nM in assay [1] and 110 nM in assay [2]. In addition, the Ki in assay [4] is above 5000 nM; in assay [5] it was 310 nM; in assay [6], 3100 nM; in assay [7], 1100 nM.

Consider `NCCOCCOCCNC(=O)/N=C(/N)NCCC[C@H](NC(=O)C(c1ccccc1)c1ccccc1)C(=O)NCc1ccc(CNC(N)=O)cc1`, for which the Kb in assay [1] and in assay [2] was above 5000 nM throughout. For the same compound, the Ki in assay [5] and in assay [6] was above 5000 nM in each case.

`NCCN(CCNC(=O)CCC(=O)NCCOCCOCCNC(=O)/N=C(/N)NCCC[C@@H](NC(=O)C(c1ccccc1)c1ccccc1)C(=O)NCc1ccc(O)cc1)CCNC(=O)CCC(=O)NCCOCCOCCNC(=O)/N=C(/N)NCCC[C@@H](NC(=O)C(c1ccccc1)c1ccccc1)C(=O)NCc1ccc(O)cc1`: the Ki was 37 nM in assay [3]; above 5000 nM in assay [4]; 470 nM in assay [5]; 25 nM in assay [6]; 1800 nM in assay [7]. For the same compound, the Kb in assay [1] turned out to be 41 nM; in assay [2], 1.1 nM.

As for `NCCN(CCNC(=O)c1ccc(C(=O)NCCOCCOCCNC(=O)/N=C(/N)NCCC[C@@H](NC(=O)C(c2ccccc2)c2ccccc2)C(=O)NCc2ccc(O)cc2)cc1)CCNC(=O)c1ccc(C(=O)NCCOCCOCCNC(=O)/N=C(/N)NCCC[C@@H](NC(=O)C(c2ccccc2)c2ccccc2)C(=O)NCc2ccc(O)cc2)cc1`, the inhibitory constant (Ki) in assay [3] was 48 nM; in assay [4] it was above 5000 nM; in assay [5] it was 130 nM. The Kb in assay [1] is 20 nM; in assay [2], 0.25 nM.

In the case of `NCCC(=O)NCCNC(=O)CCC(=O)NCCNC(=O)/N=C(\N)NCCC[C@H](NC(=O)C(c1ccccc1)c1ccccc1)C(=O)NCc1ccc(CNC(N)=O)cc1`, the Kb in assay [1] is above 5000 nM. Also, the Ki in assay [4] was above 5000 nM; in assay [5] it was 3300 nM; in assay [6] it was above 5000 nM; in assay [7] it was above 5000 nM.

In the case of `CCC(=O)NCCN(CCNC(=O)c1ccc(C(=O)NCCOCCOCCNC(=O)/N=C(/N)NCCC[C@@H](NC(=O)C(c2ccccc2)c2ccccc2)C(=O)NCc2ccc(O)cc2)cc1)CCNC(=O)c1ccc(C(=O)NCCOCCOCCNC(=O)/N=C(/N)NCCC[C@@H](NC(=O)C(c2ccccc2)c2ccccc2)C(=O)NCc2ccc(O)cc2)cc1`, the Ki in assay [3] is 110 nM; in assay [4] it was above 5000 nM; in assay [5], 410 nM; in assay [6] it was 64 nM; in assay [7] it was above 5000 nM. For the same compound, the Kb in assay [1] was found to be 36 nM.

On to `N=C(N)NCCC[C@@H](NC(=O)C(c1ccccc1)c1ccccc1)C(=O)NCc1ccc(CNC(=O)NCCCCNC(=O)CNC(=O)CCC(=O)NCCN(CCN)CCNC(=O)CCC(=O)NCC(=O)NCCCCNC(=O)NCc2ccc(CNC(=O)[C@@H](CCCNC(=N)N)NC(=O)C(c3ccccc3)c3ccccc3)cc2)cc1`, for which the Kb in assay [1] turned out to be 900 nM. For the same compound, the Ki was above 5000 nM in assay [4], 2200 nM in assay [5], 200 nM in assay [6] and 2300 nM in assay [7].

For the compound `NCCN(CCNC(=O)CCCCC(=O)NCCCCNC(=O)/N=C(/N)NCCC[C@@H](NC(=O)C(c1ccccc1)c1ccccc1)C(=O)NCc1ccc(O)cc1)CCNC(=O)CCCCC(=O)NCCCCNC(=O)/N=C(/N)NCCC[C@@H](NC(=O)C(c1ccccc1)c1ccccc1)C(=O)NCc1ccc(O)cc1`, the Kb in assay [1] was found to be 32 nM. Moreover, the Ki in assay [4] was above 5000 nM; in assay [5], 550 nM; in assay [6] it was 42 nM; in assay [7] it was 1000 nM.

With `NCCN(CCNC(=O)CCCC(=O)/N=C(/N)NCCC[C@@H](NC(=O)C(c1ccccc1)c1ccccc1)C(=O)NCc1ccc(O)cc1)CCNC(=O)CCCC(=O)/N=C(/N)NCCC[C@@H](NC(=O)C(c1ccccc1)c1ccccc1)C(=O)NCc1ccc(O)cc1`, the Kb in assay [1] amounted to 73 nM; in assay [2] it was 4.2 nM. The Ki is above 5000 nM in assay [4], 390 nM in assay [5], 30 nM in assay [6] and 620 nM in assay [7].

With `NCCN(CCNC(=O)CCCC(=O)NCCOCCOCCNC(=O)/N=C(/N)NCCC[C@@H](NC(=O)C(c1ccccc1)c1ccccc1)C(=O)NCc1ccc(O)cc1)CCNC(=O)CCCC(=O)NCCOCCOCCNC(=O)/N=C(/N)NCCC[C@@H](NC(=O)C(c1ccccc1)c1ccccc1)C(=O)NCc1ccc(O)cc1`, the Ki in assay [3] is 50 nM; in assay [4], above 5000 nM; in assay [5], 290 nM; in assay [6], 29 nM; in assay [7], 1500 nM. In addition, in assay [1], the Kb worked out at 44 nM.

Regarding `NCCN(CCNC(=O)CCC(=O)NCCCCCCNC(=O)/N=C(\N)NCCC[C@H](NC(=O)CC1(CC(=O)N2CCN(C3c4ccccc4NC(=O)c4ccccc43)CC2)CCCC1)C(=O)NCCn1c(=O)n(-c2ccccc2)n(-c2ccccc2)c1=O)CCNC(=O)CCC(=O)NCCCCCCNC(=O)/N=C(\N)NCCC[C@@H](NC(=O)C(c1ccccc1)c1ccccc1)C(=O)NCc1ccc(O)cc1` (mixture of isomers), the Ki in assay [3] is 260 nM; in assay [4] it was above 5000 nM; in assay [5], 910 nM; in assay [6], 230 nM; in assay [7] it was 85 nM. Further, the Kb was 72 nM in assay [1] and 1.5 nM in assay [2].
